Entries after “also recorded” stand apart in the source; their conditions may differ.
Key:
[1] = system: PDE4A, PDE4B, PDE4D, PDE7A; experiment: Overall PDE inhibitor profile from the yeast assays (table footnotes, summary); type: cell-based
Excerpt: PDE inhibitors were identified using methods described herein, such as high throughput drug screens on genetically engineered fission yeast strains that express drug targets (e.g., PDE4A and/or PDE4B, which are anti-inflammatory targets). PDE inhibitors were identified based on their ability to stimulate growth and compounds were identified because they were effective in live cells. In addition, targets used in the assays are full-length proteins (as opposed to simply the catalytic domain) and the assay used included a built-in toxicity test, permeability test and stability test. The inhibitors identified display a very high degree of target specificity. Compounds identified include inhibitors that act on two of three PDE4 family enzymes and inhibitors that act on combinations of PDE4 and PDE7 strains. […] Limited inhibition of PDE4D by a PDE inhibitor is desirable, in view of the fact that inhibition of PDE4D causes emesis and cardiac arrhythmias. Subtype specificity was confirmed by means of cAMP assays.
Cells were pregrown in EMM medium [MP Biomedicals (Solon, OH), 3% glucose, filter-sterilized to avoid carmelization, which would introduce variability into the optical density of the medium] containing from 0 mM to 2.5 mM cAMP (or either 0.5 mM or 1.0 mM cGMP). This was to repress expression of the fbp1-ura4 reporter prior to exposure of cells to 5FOA medium. Cells were grown at 30° C. to exponential phase (approximately 10^7 cells/ml). Cells were collected by centrifugation and resuspended in 5FOA medium, and 25 μl were transferred to 384-well microtiter dishes (untreated, with flat clear bottoms) that had been pre-filled with 25 μl 5FOA medium and pre-pinned with 100 nl of compounds (stock solutions were generally 10 mM). Starting cell concentrations ranged from 0.5×10^5 to 4×10^5 cells/ml depending on the screening strain. […] Other positive control dishes contained 5 mM cAMP in the 5FOA medium for PDEs that lack appropriate control compounds. Cultures were grown for 48 hours at 30° C., sealed in an airtight container with moist paper towels to prevent evaporation. Optical densities (OD600) of cultures were measured using a microplate reader. Bioinformatic analysis of the results to determine composite Z scores was performed as previously described (1, 3).

PDE4D3 [2] = biological target: T1, PDE4D3 (Homo sapiens, UniProt Q08499); experiment: cAMP assay in yeast strain expressing PDE4D3; type: cell-based
T1 construct: targets used in the assays are full-length proteins (as opposed to simply the catalytic domain); expressed in transfected cells; host or cells: Schizosaccharomyces pombe, gene integrated at the cgs2 locus

PDE4A1 [3] = biological target: T2, PDE4A1 (Mus musculus, UniProt O89084); experiment: cAMP assay in yeast strain expressing PDE4A1; type: cell-based, murine
T2 construct: targets used in the assays are full-length proteins (as opposed to simply the catalytic domain); expressed in transfected cells; host or cells: Schizosaccharomyces pombe, gene integrated at the cgs2 locus
T2 sequence (O89084 1-610 isoform O89084-2): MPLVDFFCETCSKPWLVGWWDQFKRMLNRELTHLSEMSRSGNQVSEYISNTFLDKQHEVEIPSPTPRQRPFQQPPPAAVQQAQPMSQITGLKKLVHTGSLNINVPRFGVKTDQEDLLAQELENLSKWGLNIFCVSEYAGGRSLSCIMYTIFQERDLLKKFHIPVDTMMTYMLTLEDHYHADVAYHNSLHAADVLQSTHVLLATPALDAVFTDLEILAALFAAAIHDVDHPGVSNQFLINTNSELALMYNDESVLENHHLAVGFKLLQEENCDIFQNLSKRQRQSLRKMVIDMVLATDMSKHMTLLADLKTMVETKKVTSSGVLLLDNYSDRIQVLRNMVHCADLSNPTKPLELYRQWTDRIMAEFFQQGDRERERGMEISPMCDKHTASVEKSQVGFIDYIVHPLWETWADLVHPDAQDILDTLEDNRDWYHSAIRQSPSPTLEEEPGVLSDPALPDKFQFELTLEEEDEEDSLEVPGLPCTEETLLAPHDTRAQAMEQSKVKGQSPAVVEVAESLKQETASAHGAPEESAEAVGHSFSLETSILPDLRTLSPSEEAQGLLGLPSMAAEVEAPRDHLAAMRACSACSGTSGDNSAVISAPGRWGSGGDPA

PDE4B3 = biological target: T3, PDE4B3 (Mus musculus, UniProt Q8VBU5); experiment: cAMP assay in yeast strain expressing PDE4B3; type: cell-based, murine
T3 construct: targets used in the assays are full-length proteins (as opposed to simply the catalytic domain); expressed in transfected cells; host or cells: Schizosaccharomyces pombe, gene integrated at the cgs2 locus
T3 sequence (Q8VBU5 1-721): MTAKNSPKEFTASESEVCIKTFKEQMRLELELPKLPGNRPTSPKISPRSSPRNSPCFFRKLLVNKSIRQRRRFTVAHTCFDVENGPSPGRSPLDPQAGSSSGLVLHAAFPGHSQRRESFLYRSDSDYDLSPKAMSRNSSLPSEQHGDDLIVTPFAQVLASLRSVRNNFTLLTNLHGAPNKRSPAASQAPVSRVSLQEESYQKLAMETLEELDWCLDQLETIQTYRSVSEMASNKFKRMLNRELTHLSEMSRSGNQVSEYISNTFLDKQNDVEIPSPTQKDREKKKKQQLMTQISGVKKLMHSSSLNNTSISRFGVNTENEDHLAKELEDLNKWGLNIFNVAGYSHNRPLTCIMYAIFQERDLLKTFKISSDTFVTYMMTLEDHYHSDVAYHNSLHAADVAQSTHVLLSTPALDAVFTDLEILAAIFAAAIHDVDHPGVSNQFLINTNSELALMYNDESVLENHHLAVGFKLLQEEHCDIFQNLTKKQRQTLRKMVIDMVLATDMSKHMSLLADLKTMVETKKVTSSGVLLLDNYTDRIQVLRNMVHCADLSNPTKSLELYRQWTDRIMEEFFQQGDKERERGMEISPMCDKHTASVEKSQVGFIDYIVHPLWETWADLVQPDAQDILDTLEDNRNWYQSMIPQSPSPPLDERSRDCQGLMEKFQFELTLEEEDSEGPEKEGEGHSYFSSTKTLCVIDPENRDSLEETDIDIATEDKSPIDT

PDE4A5 = biological target: T4, PDE4A5 (Rattus norvegicus, UniProt P54748); experiment: cAMP assay in yeast strain expressing PDE4A5; type: cell-based
T4 construct: targets used in the assays are full-length proteins (as opposed to simply the catalytic domain); expressed in transfected cells; host or cells: Schizosaccharomyces pombe, gene integrated at the cgs2 locus
T4 sequence (P54748 1-844): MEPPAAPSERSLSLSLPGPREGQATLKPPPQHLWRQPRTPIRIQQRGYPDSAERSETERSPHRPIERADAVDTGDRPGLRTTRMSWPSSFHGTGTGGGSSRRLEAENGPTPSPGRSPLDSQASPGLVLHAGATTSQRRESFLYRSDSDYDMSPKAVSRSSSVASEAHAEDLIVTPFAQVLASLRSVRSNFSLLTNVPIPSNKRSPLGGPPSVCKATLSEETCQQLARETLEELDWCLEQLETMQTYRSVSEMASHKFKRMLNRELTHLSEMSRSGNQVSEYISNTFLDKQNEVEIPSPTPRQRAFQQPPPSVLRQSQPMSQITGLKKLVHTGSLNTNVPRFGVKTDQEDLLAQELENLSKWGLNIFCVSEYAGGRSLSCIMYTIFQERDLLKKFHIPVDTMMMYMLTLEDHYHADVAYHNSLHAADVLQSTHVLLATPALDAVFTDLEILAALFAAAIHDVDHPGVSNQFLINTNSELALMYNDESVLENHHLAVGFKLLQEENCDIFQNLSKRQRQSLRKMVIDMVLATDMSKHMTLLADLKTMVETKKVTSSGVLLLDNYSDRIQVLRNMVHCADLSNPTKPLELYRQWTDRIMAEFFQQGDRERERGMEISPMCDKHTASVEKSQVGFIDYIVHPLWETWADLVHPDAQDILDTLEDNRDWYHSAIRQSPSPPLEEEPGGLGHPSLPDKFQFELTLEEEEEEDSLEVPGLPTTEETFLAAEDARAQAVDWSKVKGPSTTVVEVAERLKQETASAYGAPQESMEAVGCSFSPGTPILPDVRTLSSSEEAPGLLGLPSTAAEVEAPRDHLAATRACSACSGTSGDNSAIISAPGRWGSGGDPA

PDE4D2 = biological target: T5, PDE4D2 (Homo sapiens, UniProt Q08499); experiment: cAMP assay in yeast strain expressing PDE4D2; type: cell-based
T5 construct: targets used in the assays are full-length proteins (as opposed to simply the catalytic domain); expressed in transfected cells; host or cells: Schizosaccharomyces pombe

PDE4D3 [4] = biological target: T1, PDE4D3; experiment: IC50 on PDE4D3; type: biochemical; details: read-out: IC50, PDE 4D3
PDE4A1 [5] = biological target: T2, PDE4A1; experiment: IC50 on PDE4A1; type: biochemical, murine; details: read-out: IC50, PDE 4A1

T1 sequence (Q08499 1-673 isoform Q08499-2): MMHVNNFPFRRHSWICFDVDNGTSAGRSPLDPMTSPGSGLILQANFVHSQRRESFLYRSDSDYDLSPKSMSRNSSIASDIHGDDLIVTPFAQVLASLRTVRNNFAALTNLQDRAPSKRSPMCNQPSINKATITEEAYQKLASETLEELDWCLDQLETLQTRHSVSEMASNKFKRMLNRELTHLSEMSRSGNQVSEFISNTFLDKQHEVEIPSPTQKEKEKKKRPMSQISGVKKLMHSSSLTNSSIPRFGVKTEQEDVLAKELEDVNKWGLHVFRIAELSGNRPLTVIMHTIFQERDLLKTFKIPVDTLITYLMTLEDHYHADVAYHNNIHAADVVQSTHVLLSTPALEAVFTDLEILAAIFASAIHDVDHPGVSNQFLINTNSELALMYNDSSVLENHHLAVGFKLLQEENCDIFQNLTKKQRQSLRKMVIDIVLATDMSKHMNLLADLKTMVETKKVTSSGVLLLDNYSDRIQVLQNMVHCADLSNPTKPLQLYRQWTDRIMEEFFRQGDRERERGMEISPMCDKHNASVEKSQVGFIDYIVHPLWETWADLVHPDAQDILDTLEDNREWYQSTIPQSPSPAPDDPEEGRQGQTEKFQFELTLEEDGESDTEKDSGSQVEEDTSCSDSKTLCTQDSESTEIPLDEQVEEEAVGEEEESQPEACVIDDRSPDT
T5 sequence (Q08499 303-809): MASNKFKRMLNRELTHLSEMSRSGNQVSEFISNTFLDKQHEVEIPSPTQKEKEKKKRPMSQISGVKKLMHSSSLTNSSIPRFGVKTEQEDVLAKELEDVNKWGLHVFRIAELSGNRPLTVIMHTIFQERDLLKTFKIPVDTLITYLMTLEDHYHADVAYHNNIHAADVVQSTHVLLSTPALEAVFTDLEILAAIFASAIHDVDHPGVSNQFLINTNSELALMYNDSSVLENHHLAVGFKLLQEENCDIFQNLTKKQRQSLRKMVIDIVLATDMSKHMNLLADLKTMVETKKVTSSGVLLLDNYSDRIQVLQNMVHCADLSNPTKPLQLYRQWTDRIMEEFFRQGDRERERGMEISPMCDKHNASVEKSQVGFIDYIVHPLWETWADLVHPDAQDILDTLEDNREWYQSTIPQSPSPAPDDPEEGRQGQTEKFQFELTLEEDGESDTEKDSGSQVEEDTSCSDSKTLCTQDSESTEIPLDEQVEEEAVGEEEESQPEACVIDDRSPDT

cAMP Response (% rolipram), PDE 4D3 (PDE4D3 [2]): 14.00 % rolipram
cAMP Response (% rolipram), PDE 4A1 (PDE4A1 [3]): 96.00 % rolipram
cAMP Response (% rolipram), PDE 4B3 (PDE4B3): 92.00 % rolipram
cAMP Response (% rolipram), PDE 4A5 (PDE4A5): 57.30 % rolipram
cAMP Response (% rolipram), PDE 4D2 (PDE4D2): ND ND ND 17.00 ND % rolipram
IC50 (PDE4D3 [4]): 500 nM
IC50 (PDE4A1 [5]): 500 nM
SMILES: Cc1cc(C)nc(SCCS(=O)(=O)c2ccc(C(C)(C)C)cc2)n1 [Compound 26]
PDE inhibitor profile in words (table footnote / summary) [1]: effective PDE4A/4B inhibitor that exhibits limited/essentially no inhibition of PDE4D; also recorded: effective PDE4A/4B inhibitor; also recorded: little or no inhibition of PDE4D; also recorded: (1) Strong PDE4A, 4B inhibitor

— patent publication US20100179158A1, “INHIBITORS OF CYCLIC AMP PHOSPHODIESTERASES” (priority 2007, published 2010)
